Source: patent EP4644383A1 (Jiangsu Yahong Meditech Co., Ltd., priority 2022, dated 2024)
Where two headings read alike, the source gives them in different places.

Columns and labels:
[1] = biological target: T1, FGFR3 (Homo sapiens, UniProt P22607); assay: FGFR3 kinase activity inhibition assay (LanthaScreen TR-FRET); assay type: biochemical; settings: for Selectivity (X) FGFR1/FGFR3: ratio of IC50 FGFR1/FGFR3, selectivity towards FGFR3; for Selectivity (X) FGFR2/FGFR3: ratio of IC50 FGFR2/FGFR3, selectivity towards FGFR3; for Selectivity (X) FGFR4/FGFR3: ratio of IC50 FGFR4/FGFR3, selectivity towards FGFR3
T1 construct: FGFR3's cytoplasmic domain [436-806 (terminal) amino acids]; purchased Carna 08-135
T1 sequence (P22607 436-806): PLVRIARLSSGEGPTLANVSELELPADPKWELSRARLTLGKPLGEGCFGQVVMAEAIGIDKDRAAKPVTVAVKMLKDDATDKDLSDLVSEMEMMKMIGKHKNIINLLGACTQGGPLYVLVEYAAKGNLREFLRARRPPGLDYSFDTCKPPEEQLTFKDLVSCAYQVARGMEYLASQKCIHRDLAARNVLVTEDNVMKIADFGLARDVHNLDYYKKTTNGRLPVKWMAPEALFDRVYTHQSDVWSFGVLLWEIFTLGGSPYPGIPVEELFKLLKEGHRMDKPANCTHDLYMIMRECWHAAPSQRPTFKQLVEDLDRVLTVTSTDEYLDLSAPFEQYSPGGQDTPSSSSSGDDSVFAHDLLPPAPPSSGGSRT
In short: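 Read-out is TR-FRET, with the 520 nm/495 nm emission ratio normalised to DMSO (max) and enzyme-free (min) controls. Enzyme was the FGFR3 cytoplasmic domain, residues 436-806. EDTA (10 mM) stopped the reaction, followed by 60 min at 22 °C before reading.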

[2] = biological target: T2, FGFR4 (Homo sapiens, UniProt P22455); assay: FGFR4 kinase activity inhibition assay (LanthaScreen TR-FRET); assay type: biochemical
T2 construct: FGFR4's cytoplasmic domain [460-802 (terminal) amino acids]; purchased Carna 08-136
T2 sequence (P22455 460-802): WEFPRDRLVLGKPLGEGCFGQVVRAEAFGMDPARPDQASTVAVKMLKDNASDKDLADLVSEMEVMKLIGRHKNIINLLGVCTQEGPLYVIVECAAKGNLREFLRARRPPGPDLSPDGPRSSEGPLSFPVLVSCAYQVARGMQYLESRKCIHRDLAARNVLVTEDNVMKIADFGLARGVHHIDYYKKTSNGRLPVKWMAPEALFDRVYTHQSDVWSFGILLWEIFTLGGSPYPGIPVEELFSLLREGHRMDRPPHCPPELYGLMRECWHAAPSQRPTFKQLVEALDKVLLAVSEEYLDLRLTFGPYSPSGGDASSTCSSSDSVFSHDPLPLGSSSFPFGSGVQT
In short: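 GST-tagged cytoplasmic domains (FGFR2 aa 399-821; FGFR4 aa 460-802) were preincubated 10 min at 23 °C with compound (top 1 µM, threefold dilutions). Then 28 nM fluorescein-poly GT and 28 µM ATP were added for 30 min at 23 °C in HEPES pH 7.5 buffer. Tb-PY20 TR-FRET 520/495 ratio gave % inhibition versus DMSO and no-enzyme controls.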

[3] = test system: Ba/F3-FGFR3-BAIAP2L1 cells; assay: Inhibition of proliferation activity of Ba/F3-FGFR3-BAIAP2L1 cells (CellTiter-Glo); assay type: cell-based; settings: for IC50: Ba/F3-FGFR3-BAIAP2L1 cells, 72 hours, CTG, read-out: IC50 (nM) Ba/F3-FGFR3-BAIAP2L1; for Selectivity (X) FGFR1/FGFR3: ratio of IC50 Ba/F3-BCR-FGFR1 to IC50 Ba/F3-FGFR3-BAIAP2L1
Procedure: The present experiment used CellTiter-Glo® Luminescent Cell Viability Assay (Promega: G7573) kit, which was a homogeneous cell viability detection method and determined the cell viability of cultured cells by quantifying ATP. • ① Ba/F3-BCR-FGFR1 or Ba/F3-FGFR3-BAIAP2L1 cells were cultured in 1640 complete medium (Gibco: 11879020) (10% FBS (Gibco: 10091-148)+1% Pen Strep (Gibco: 15140122)) under the condition of 37°C and 5% CO2. • (2) The cells in logarithmic growth phase were harvested and counted using a […]. The trypan blue exclusion method was used to detect cell viability to ensure the cell viability was above 90%. • ③ The cell density was adjusted using 1640 complete medium, and then, the cells were seeded into a 96-well cell culture plate at 90 µL/well with a total of 2000 cells. • ④ A 10-fold drug solution was prepared starting from a maximum drug concentration of 10 µM and 4-fold serially diluted into10 concentrations. […] The luminescence values were read to collect the data. • ⑩ The data were analyzed using XLFit excel plugin version 5.5.0.5, and fitted with non-linear S-curve regression to obtain the dose-response curves and thus calculate the IC50 values. Y = Bottom + (Top-Bottom)/((1+(IC50/X))^(∧) HillSlope [formula]
"Top" refers to the maximum response, "Bottom" refers to the minimum response, and "HillSlope" refers to the slope of the curve.
"Max" represents the average value of the cell control+DMSO, and "Min" represents the average value of the medium control+DMSO.

[4] = FGFR3 kinase, TR-FRET, read-out: IC50 (nM) FGFR3
[5] = FGFR4 kinase, TR-FRET, read-out: IC50 (nM) FGFR4

Row | SMILES | IC50 [1, 4] [nM] | Selectivity (X) FGFR1/FGFR3 [1] | Selectivity (X) FGFR2/FGFR3 [1] | Selectivity (X) FGFR4/FGFR3 [1] | IC50 [2, 5] [nM] | IC50 [3] [nM] | Selectivity (X) FGFR1/FGFR3 [3] [X] | IC50 [1] [nM] | IC50 [2] [nM]
1 | CC(Oc1ccc2[nH]nc(-c3cnn(C4CN(C(=O)C(C)(C)O)C4)c3)c2c1)c1cccc2nccnc12 (stereo not shown) [Example 190, 2-hydroxy-2-methyl-1-(3-(4-(5-(1-(quinoxalin-5-yl)ethoxy)-1H-indazol-3-yl)-1H-pyrazol-1-yl)azetidin-1-yl)propan-1-one] | < 1 | B (B represents 20 ≤ multiple X<50) | A (A represents 1 ≤ multiple X<20) | B (B represents 20 ≤ multiple X<50) | 10 to 100 | 3.8 | 113 | – | –
2 | CC(=O)N1CC(n2cc(-c3n[nH]c4ccc(OC(C)c5cccc6nccnc56)cc34)cn2)C1 (stereo not shown) [Example 218, 1-(3-(4-(5-(1-(quinoxalin-5-yl)ethoxy)-1H-indazol-3-yl)-1H-pyrazol-1-yl)azetidin-1-yl)ethan-1-one] | < 1 | B (B represents 20 ≤ multiple X<50) | A (A represents 1 ≤ multiple X<20) | B (B represents 20 ≤ multiple X<50) | 10 to 100 | 8.4 | 53 | – | –
3 | CC(Oc1ccc2[nH]nc(-c3cnn(C)c3)c2c1)c1nc(C(F)F)cc2nccnc12 (stereo not shown) [Example 236, 7-(difluoromethyl)-5-(1-((3-(1-methyl-1H-pyrazol-4-yl)-1H-indazol-5-yl)oxy)ethyl)pyridino[3,4-b]pyrazine] | < 1 | A (A represents 1 ≤ multiple X<20) | A (A represents 1 ≤ multiple X<20) | C (C represents 50 ≤ multiple X<100) | 10 to 100 | 0.9 | 182 | – | –
4 | [2H]C([2H])([2H])c1cc2nccnc2c(C(C)Oc2ccc3[nH]nc(-c4cnn(C)c4)c3c2)n1 (stereo not shown) [Example 241] | – | B (B represents 20 ≤ multiple X<50) | A (A represents 1 ≤ multiple X<20) | A (A represents 1 ≤ multiple X<20) | – | 0.8 | 76 | < 1 | 1 to 10
